The values below are quoted from earlier work in US6960571B2, “Methods and compositions for administration of iron for the treatment of restless leg syndrome” (Luitpold Pharmaceuticals, Inc., priority 2003, dated 2005).

Where two headings read alike, the source gives them in different places.

As to `O=C1CN=C(c2ccccc2Cl)c2cc([N+](=O)[O-])ccc2N1` [Clonazepam], where the note is “Epilepsy patients, somnolence, depression, in-coordination”, the “% affected by side effects” value was 6-37%. In the case of Pergolide w/ levodopa/carbidopa, where the note is “Parkinson patients, dyskinesia, nausea, hallucinations, rhinitis, constipation, pain”, the “% affected by side effects” value is on record as 7-62%. On to `Clc1cccc(Cl)c1N=C1NCCN1` [Clonidine], for which, for the setting “Hypertension patients, reduced blood pressure, dermatitis, systemic side effects (dry mouth, somnolence, dizziness, headache)”, the “% affected by side effects” value was 8-89%. Take `NC(=O)N1c2ccccc2C=Cc2ccccc21` [Carbamazepine]: the “% affected by side effects” value (Epilepsy patients, fetal malformation, rash, hyponatremia, hepatotoxicity, blood disorders, ataxia, gastro-intestinal problems, sexual dysfunction, toxicity) is 1-33%. As to levodopa/carbidopa, under “Parkinson patients, dyskinesia, nausea, hallucinations”, the “% affected by side effects” value is given as 4-17%. Consider `Cc1nnc2n1-c1ccc(Cl)cc1C(c1ccccc1Cl)=NC2` [Triazolam], for which, where the note is “Insomnia patients, drowsiness, dizziness, memory impairment”, the “% affected by side effects” value is given as 1-14%. Turning to `CCCN[C@H]1CCc2nc(N)sc2C1` [Pramipexole], the “% affected by side effects” value (Parkinson patients, somnolence, insomnia, nausea, constipation, hallucinations) is recorded as 9-28%. `NCC1(CC(=O)O)CCCCC1` [Gabapentin]: the “% affected by side effects” value (Epilepsy patients, fatigue, dizziness, somnolence, ataxia) was 11-19%.
